According to ChEMBL document CHEMBL1681642, “Synthesis and biological activity of novel MIF antagonists” (Bioorg Med Chem Lett, 2011):

System: PBMC
Experiment: Antiinflammatory activity in human PBMC assessed as inhibition of MIF-induced TNFalpha production at 100 uM after 21 hrs by ELISA
Type: functional
Details: not given
In the case of `CC(C)(C)C(=O)OC1CC(c2cn(-c3cccc(C(F)(F)F)c3)c3ccccc23)=NO1` (stereo not given), the inhibition at 100 µM is reported as 0%. Work on `CC(C)(C)C(=O)OC1CC(c2ccoc2)=NO1` (stereo not given) yielded an inhibition at 100 µM of 0%. `CC1(C(=O)O)CC(c2cn(-c3cccc(C(F)(F)F)c3)c3ccccc23)=NO1` (stereo not given) showed an inhibition at 100 µM of 39%. In the case of `O=C1CCCN1C1CC(c2ccoc2)=NO1` (stereo not given), the inhibition at 100 µM is reported as 28%.

Target: T1, Macrophage migration inhibitory factor (Homo sapiens) (UniProt P14174)
T1 sequence (whole entry): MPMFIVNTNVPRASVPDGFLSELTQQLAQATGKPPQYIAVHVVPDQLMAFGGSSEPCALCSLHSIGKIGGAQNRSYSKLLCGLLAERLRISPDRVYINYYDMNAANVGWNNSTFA
Experiment: Inhibition of human purified MIF tautomerase activity at 10 uM after 30 mins
Details: not given
In the case of `CC(C)(C)C(=O)OC1CC(c2cn(-c3cccc(C(F)(F)F)c3)c3ccccc23)=NO1` (stereo not given), the inhibition is reported as 15%. For `CC(C)(C)C(=O)OC1CC(c2ccoc2)=NO1` (stereo not given), the inhibition was 13%. With `CC1(C(=O)O)CC(c2cn(-c3cccc(C(F)(F)F)c3)c3ccccc23)=NO1` (stereo not given) the inhibition was 2%. Work on `O=C1CCCN1C1CC(c2ccoc2)=NO1` (stereo not given) yielded an inhibition of 0%.

System: not listed separately
Experiment: Cytotoxicity against human PBMC assessed as cell viability measured during cytokines production assay at 100 uM after 21 hrs by MTS assay
Type: cell-based
Details: PBMC (peripheral blood mononuclear cells)
`CC(C)(C)C(=O)OC1CC(c2cn(-c3cccc(C(F)(F)F)c3)c3ccccc23)=NO1` (stereo not given) showed a cytotoxicity at 21 h, 100 µM of 15%. With `CC(C)(C)C(=O)OC1CC(c2ccoc2)=NO1` (stereo not given) the cytotoxicity at 21 h, 100 µM was 8%. In the case of `CC1(C(=O)O)CC(c2cn(-c3cccc(C(F)(F)F)c3)c3ccccc23)=NO1` (stereo not given), the cytotoxicity at 21 h, 100 µM is reported as 14%. For `O=C1CCCN1C1CC(c2ccoc2)=NO1` (stereo not given), the cytotoxicity at 21 h, 100 µM was 5%.

Target: T1, Macrophage migration inhibitory factor (Homo sapiens)
Experiment: Inhibition of human purified MIF tautomerase activity at 100 uM after 30 mins
Details: not given
Compound `CC(C)(C)C(=O)OC1CC(c2cn(-c3cccc(C(F)(F)F)c3)c3ccccc23)=NO1` (stereo not given) has an inhibition of 100%. Work on `CC(C)(C)C(=O)OC1CC(c2ccoc2)=NO1` (stereo not given) yielded an inhibition of 30%. With `CC1(C(=O)O)CC(c2cn(-c3cccc(C(F)(F)F)c3)c3ccccc23)=NO1` (stereo not given) the inhibition was 17%. `O=C1CCCN1C1CC(c2ccoc2)=NO1` (stereo not given) gave an inhibition of 18%.

System: PBMC
Experiment: Antiinflammatory activity in human PBMC assessed as inhibition of MIF-induced IL1-beta production at 100 uM after 21 hrs by ELISA
Type: functional
Details: not given
For `CC(C)(C)C(=O)OC1CC(c2cn(-c3cccc(C(F)(F)F)c3)c3ccccc23)=NO1` (stereo not given), the inhibition at 100 µM was 15%. Compound `CC(C)(C)C(=O)OC1CC(c2ccoc2)=NO1` (stereo not given) has an inhibition at 100 µM of 6%. `CC1(C(=O)O)CC(c2cn(-c3cccc(C(F)(F)F)c3)c3ccccc23)=NO1` (stereo not given) showed an inhibition at 100 µM of 54%. `O=C1CCCN1C1CC(c2ccoc2)=NO1` (stereo not given) showed an inhibition at 100 µM of 22%.

Target: T1, Macrophage migration inhibitory factor (Homo sapiens)
Experiment: Inhibition of MIF in human PBMC assessed as MIF secretion at 10 uM after 5 hrs by ELISA
Details: not given
With `CC(C)(C)C(=O)OC1CC(c2cn(-c3cccc(C(F)(F)F)c3)c3ccccc23)=NO1` (stereo not given) the inhibition was 0%. `CC(C)(C)C(=O)OC1CC(c2ccoc2)=NO1` (stereo not given) showed an inhibition of 40%. `CC1(C(=O)O)CC(c2cn(-c3cccc(C(F)(F)F)c3)c3ccccc23)=NO1` (stereo not given) showed an inhibition of 41%. `O=C1CCCN1C1CC(c2ccoc2)=NO1` (stereo not given) showed an inhibition of 0%.

System: PBMC
Experiment: Antiinflammatory activity in human PBMC assessed as inhibition of MIF-induced IL-6 production at 100 uM after 21 hrs by ELISA
Type: functional
Details: not given
`CC(C)(C)C(=O)OC1CC(c2cn(-c3cccc(C(F)(F)F)c3)c3ccccc23)=NO1` (stereo not given) gave an inhibition at 100 µM of 12%. `CC(C)(C)C(=O)OC1CC(c2ccoc2)=NO1` (stereo not given) gave an inhibition at 100 µM of 1%. `CC1(C(=O)O)CC(c2cn(-c3cccc(C(F)(F)F)c3)c3ccccc23)=NO1` (stereo not given) showed an inhibition at 100 µM of 45%. Compound `O=C1CCCN1C1CC(c2ccoc2)=NO1` (stereo not given) has an inhibition at 100 µM of 49%.

System: not listed separately
Experiment: Cytotoxicity against human PBMC assessed as cell viability measured during MIF secretion assay at 100 uM after 21 hrs by MTS assay
Type: cell-based
Details: PBMC (peripheral blood mononuclear cells)
Compound `CC(C)(C)C(=O)OC1CC(c2cn(-c3cccc(C(F)(F)F)c3)c3ccccc23)=NO1` (stereo not given) has a cytotoxicity at 21 h, 100 µM of 0%. In the case of `CC(C)(C)C(=O)OC1CC(c2ccoc2)=NO1` (stereo not given), the cytotoxicity at 21 h, 100 µM is reported as 0%. `CC1(C(=O)O)CC(c2cn(-c3cccc(C(F)(F)F)c3)c3ccccc23)=NO1` (stereo not given) gave a cytotoxicity at 21 h, 100 µM of 2%. With `O=C1CCCN1C1CC(c2ccoc2)=NO1` (stereo not given) the cytotoxicity at 21 h, 100 µM was 0%.

System: PBMC
Experiment: Antiinflammatory activity in human PBMC assessed as inhibition of MIF-induced IL-6 production at 30 uM after 21 hrs by ELISA
Type: functional
Details: not given
Compound `CC(C)(C)C(=O)OC1CC(c2cn(-c3cccc(C(F)(F)F)c3)c3ccccc23)=NO1` (stereo not given) has an inhibition at 30 µM of 10%. `CC(C)(C)C(=O)OC1CC(c2ccoc2)=NO1` (stereo not given) showed an inhibition at 30 µM of 3%. For `CC1(C(=O)O)CC(c2cn(-c3cccc(C(F)(F)F)c3)c3ccccc23)=NO1` (stereo not given), the inhibition at 30 µM was 18%. With `O=C1CCCN1C1CC(c2ccoc2)=NO1` (stereo not given) the inhibition at 30 µM was 43%.

Target: T1, Macrophage migration inhibitory factor (Homo sapiens)
Experiment: Inhibition of MIF in human PBMC assessed as MIF secretion at 100 uM after 5 hrs by ELISA
Details: not given
`CC(C)(C)C(=O)OC1CC(c2cn(-c3cccc(C(F)(F)F)c3)c3ccccc23)=NO1` (stereo not given) showed an inhibition of 5%. `CC(C)(C)C(=O)OC1CC(c2ccoc2)=NO1` (stereo not given) gave an inhibition of 86%. `CC1(C(=O)O)CC(c2cn(-c3cccc(C(F)(F)F)c3)c3ccccc23)=NO1` (stereo not given) gave an inhibition of 14%. In the case of `O=C1CCCN1C1CC(c2ccoc2)=NO1` (stereo not given), the inhibition is reported as 36%.
